Here are results for 2 compounds from ChEMBL document CHEMBL3745697, “Identification of azabenzimidazoles as potent JAK1 selective inhibitors” (Bioorg Med Chem Lett, 2016).

Molecules are shown by their SMILES. Activity calls are given as the source filed them. The rule behind the calls is not given here.

Assay [1] in a line: Cell cycle arrest in human SW620 cells assessed as accumulation at Sub G1 phase at 10 uM after 24 hrs by propidium iodide staining-based flow cytometric analysis (reference value: 1.6%). It is filed as functional. Particulars: SW-620. On the technique in general: In flow cytometry, cells or beads pass a laser one at a time.
Assay [2] can be described thus: Cell cycle arrest in human SW620 cells assessed as accumulation at G1 phase at 10 uM after 24 hrs by propidium iodide staining-based flow cytometric analysis (reference value: 61.4%). Type of assay: functional. Particulars: SW-620.
Assay [3] is described as follows: Cell cycle arrest in human SW620 cells assessed as accumulation at S phase at 10 uM after 24 hrs by propidium iodide staining-based flow cytometric analysis (reference value: 13.9%). Type of assay: functional. Conditions: SW-620.
The nature of assay [4]: Cell cycle arrest in human SW620 cells assessed as accumulation at G2/M phase at 10 uM after 24 hrs by propidium iodide staining-based flow cytometric analysis (reference value: 17.4%). It is filed as functional. Conditions: SW-620.
A short description of assay [5]: Cell cycle arrest in human SW620 cells assessed as multi-nuclear cells at 10 uM after 24 hrs by propidium iodide staining-based flow cytometric analysis (reference value: 5%). Type of assay: functional. Conditions: SW-620.
Assay [6] can be described thus: Cell cycle arrest in human SW620 cells assessed as accumulation at Sub G1 phase at 1 uM after 24 hrs by propidium iodide staining-based flow cytometric analysis (reference value: 1.6%). Type of assay: functional. Particulars: SW-620.
Assay [7] in a line: Cell cycle arrest in human SW620 cells assessed as accumulation at G1 phase at 1 uM after 24 hrs by propidium iodide staining-based flow cytometric analysis (reference value: 61.4%). It is filed as functional. Conditions: SW-620.
Assay [8] in a line: Cell cycle arrest in human SW620 cells assessed as accumulation at S phase at 1 uM after 24 hrs by propidium iodide staining-based flow cytometric analysis (reference value: 13.9%). It is filed as functional. Conditions: SW-620.
Assay [9] can be described thus: Cell cycle arrest in human SW620 cells assessed as accumulation at G2/M phase at 1 uM after 24 hrs by propidium iodide staining-based flow cytometric analysis (reference value: 17.4%). Type of assay: functional. Conditions: SW-620.
A short description of assay [10]: Cell cycle arrest in human SW620 cells assessed as multi-nuclear cells at 1 uM after 24 hrs by propidium iodide staining-based flow cytometric analysis (reference value: 5%). Type of assay: functional. Conditions: SW-620.
Assay [11] concerns the target T1, Tyrosine-protein kinase JAK2 (Homo sapiens, UniProt O60674). In words: Inhibition of N-terminal GST-fused recombinant JAK2 (831 to 1132 residues) (unknown origin) expressed in insect cells using 5FAM-GEEPLYWSFPAKKK-NH2 as substrate by microfluidic capillary electrophoresis method.
For assay [12], the target named is T2, Tyrosine-protein kinase JAK1 (Homo sapiens, UniProt P23458). In words: Inhibition of N-terminal GST-fused human recombinant JAK1 (866 to 1154 residues) expressed in insect cells using FITC-C6-KKHTDDGYMPMSPGVA-NH2 as substrate by microfluidic capillary electrophoresis method.
The target in assay [13] is T3, Tyrosine-protein kinase JAK3 (Homo sapiens, UniProt P52333).
T3 sequence (P52333 whole entry): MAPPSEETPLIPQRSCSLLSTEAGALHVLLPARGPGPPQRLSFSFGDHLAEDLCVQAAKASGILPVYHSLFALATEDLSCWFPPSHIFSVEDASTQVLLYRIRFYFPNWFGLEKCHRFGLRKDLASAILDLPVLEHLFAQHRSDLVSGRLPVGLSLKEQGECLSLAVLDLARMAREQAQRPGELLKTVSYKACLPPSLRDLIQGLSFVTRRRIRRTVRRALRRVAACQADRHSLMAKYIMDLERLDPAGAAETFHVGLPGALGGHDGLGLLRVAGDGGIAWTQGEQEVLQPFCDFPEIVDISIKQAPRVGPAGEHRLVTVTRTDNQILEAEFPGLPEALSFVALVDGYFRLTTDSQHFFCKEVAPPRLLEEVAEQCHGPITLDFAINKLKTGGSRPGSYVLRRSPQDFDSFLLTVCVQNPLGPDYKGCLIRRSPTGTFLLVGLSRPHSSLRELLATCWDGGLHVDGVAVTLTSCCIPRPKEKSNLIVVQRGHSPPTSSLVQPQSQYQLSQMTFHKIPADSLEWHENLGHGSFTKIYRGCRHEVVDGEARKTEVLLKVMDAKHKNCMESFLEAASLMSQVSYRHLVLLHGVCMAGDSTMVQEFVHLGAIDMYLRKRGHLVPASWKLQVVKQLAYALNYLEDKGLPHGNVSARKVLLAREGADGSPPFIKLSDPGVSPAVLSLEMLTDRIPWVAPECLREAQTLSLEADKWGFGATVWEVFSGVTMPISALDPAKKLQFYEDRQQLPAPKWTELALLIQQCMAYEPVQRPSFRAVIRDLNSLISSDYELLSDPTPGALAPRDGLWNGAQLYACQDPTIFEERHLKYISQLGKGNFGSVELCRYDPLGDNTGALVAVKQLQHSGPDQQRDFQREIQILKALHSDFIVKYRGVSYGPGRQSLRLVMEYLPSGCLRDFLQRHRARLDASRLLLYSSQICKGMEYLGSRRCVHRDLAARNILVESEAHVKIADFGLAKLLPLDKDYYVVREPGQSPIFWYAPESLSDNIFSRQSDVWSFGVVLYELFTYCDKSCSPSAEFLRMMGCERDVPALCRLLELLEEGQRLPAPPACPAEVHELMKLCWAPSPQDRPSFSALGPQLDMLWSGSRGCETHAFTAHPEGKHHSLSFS
In words: Inhibition of N-terminal GST-fused recombinant JAK3 (781 to 1124 residues) (unknown origin) expressed in insect cells using 5FAM-GEEPLYWSFPAKKK-NH2 as substrate by microfluidic capillary electrophoresis method.

Assay [14] has as its target T2, Tyrosine-protein kinase JAK1. In words: Inhibition of JAK1 in human NCI-H1975 cells assessed as reduction in STAT3 phosphorylation after 2 hrs. It is filed as cell-based.
The target in assay [15] is Aurora kinase B (Homo sapiens, UniProt Q96GD4). The assay is described as follows: Inhibition of GST-INCENP activated N-terminal 6His-tagged human recombinant full length Aurora B (1 to 344 residues) expressed in baculovirus expression system using 5FAM-LRRASLG as substrate by microfluidic capillary electrophoresis method.
The target of assay [16] is Cyclin-dependent kinase 2/cyclin E1 (Homo sapiens, UniProt P24941). The assay is described as follows: Inhibition of N-terminal 6His-tagged human recombinant full length CDK2 (1 to 304 residues)/Cyclin E1 (1 to 410 residues) expressed in insect cells using FL-Ahx-QSPKKG-CONH2 as substrate by microfluidic capillary electrophoresis method.
Assay [17] concerns the target T2, Tyrosine-protein kinase JAK1. The assay is described as follows: Inhibition of JAK1 in human NCI-H1975 cells assessed as reduction in STAT3 phosphorylation at 0.003 to 3 uM after 2 hrs by Western blot analysis. Type of assay: cell-based. In general terms: In western blotting, separated proteins are transferred to a membrane and probed.
Assay [18] has as its target T1, Tyrosine-protein kinase JAK2. In words: Inhibition of JAK2 in human HEL 92.1.7 cells assessed as reduction in STAT5 phosphorylation after 2 hrs by Western blot analysis. It is filed as cell-based.
For assay [19], the system named is Mus musculus. The assay is described as follows: Inhibition of JAK1-mediated STAT3 phosphorylation in human NCI-H1975 cells xenografted in NCr nude mouse at 200 mg/kg, po administered as single dose after 1.5 hrs by Western blot analysis. Type of assay: functional.
Assay [20] deals with Mus musculus. The assay is described as follows: Inhibition of JAK1-mediated STAT3 phosphorylation in human NCI-H1975 cells xenografted in NCr nude mouse at 200 mg/kg, po administered as single dose after 8 hrs by Western blot analysis. It is filed as functional, organism-based.
Assay [21] concerns the target Non-receptor tyrosine-protein kinase TYK2 (Homo sapiens, UniProt P29597). The assay is described as follows: Inhibition of N-terminal 6His-tagged human recombinant Tyk2.

What is called IC50 is the midpoint of a concentration-inhibition curve. The term inhibition in vivo denotes the percentage by which the read-out fell short of the control.

T2 sequence (P23458 whole entry, the tested form may be a part): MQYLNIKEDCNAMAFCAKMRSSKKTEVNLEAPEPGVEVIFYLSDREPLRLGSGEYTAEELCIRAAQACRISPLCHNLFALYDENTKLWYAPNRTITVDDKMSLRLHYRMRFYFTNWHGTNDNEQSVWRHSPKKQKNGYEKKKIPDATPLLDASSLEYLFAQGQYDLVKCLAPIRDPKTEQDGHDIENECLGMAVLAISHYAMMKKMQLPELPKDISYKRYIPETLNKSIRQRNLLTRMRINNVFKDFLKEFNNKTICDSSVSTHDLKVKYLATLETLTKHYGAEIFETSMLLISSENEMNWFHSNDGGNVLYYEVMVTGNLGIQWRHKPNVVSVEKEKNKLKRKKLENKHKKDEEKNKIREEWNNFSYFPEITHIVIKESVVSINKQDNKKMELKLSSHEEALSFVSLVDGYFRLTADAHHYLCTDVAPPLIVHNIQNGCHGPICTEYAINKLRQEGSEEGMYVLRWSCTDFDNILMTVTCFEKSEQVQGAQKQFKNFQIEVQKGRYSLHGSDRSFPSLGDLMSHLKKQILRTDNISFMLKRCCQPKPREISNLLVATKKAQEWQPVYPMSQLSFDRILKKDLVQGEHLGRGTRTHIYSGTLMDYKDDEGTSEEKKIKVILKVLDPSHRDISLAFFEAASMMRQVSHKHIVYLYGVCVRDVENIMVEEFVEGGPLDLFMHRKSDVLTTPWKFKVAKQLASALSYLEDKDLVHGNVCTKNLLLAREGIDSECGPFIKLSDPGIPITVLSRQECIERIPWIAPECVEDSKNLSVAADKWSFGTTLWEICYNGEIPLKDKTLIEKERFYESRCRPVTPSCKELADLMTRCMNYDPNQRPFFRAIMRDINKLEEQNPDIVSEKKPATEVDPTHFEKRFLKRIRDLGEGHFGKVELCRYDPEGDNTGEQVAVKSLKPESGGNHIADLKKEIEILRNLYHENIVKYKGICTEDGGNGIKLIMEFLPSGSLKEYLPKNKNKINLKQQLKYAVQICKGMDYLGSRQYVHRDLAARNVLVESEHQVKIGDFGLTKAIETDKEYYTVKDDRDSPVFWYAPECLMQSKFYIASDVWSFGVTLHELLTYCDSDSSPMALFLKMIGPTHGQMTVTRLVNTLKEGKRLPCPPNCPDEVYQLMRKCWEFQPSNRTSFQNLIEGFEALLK
T1 sequence (O60674 whole entry, the tested form may be a part): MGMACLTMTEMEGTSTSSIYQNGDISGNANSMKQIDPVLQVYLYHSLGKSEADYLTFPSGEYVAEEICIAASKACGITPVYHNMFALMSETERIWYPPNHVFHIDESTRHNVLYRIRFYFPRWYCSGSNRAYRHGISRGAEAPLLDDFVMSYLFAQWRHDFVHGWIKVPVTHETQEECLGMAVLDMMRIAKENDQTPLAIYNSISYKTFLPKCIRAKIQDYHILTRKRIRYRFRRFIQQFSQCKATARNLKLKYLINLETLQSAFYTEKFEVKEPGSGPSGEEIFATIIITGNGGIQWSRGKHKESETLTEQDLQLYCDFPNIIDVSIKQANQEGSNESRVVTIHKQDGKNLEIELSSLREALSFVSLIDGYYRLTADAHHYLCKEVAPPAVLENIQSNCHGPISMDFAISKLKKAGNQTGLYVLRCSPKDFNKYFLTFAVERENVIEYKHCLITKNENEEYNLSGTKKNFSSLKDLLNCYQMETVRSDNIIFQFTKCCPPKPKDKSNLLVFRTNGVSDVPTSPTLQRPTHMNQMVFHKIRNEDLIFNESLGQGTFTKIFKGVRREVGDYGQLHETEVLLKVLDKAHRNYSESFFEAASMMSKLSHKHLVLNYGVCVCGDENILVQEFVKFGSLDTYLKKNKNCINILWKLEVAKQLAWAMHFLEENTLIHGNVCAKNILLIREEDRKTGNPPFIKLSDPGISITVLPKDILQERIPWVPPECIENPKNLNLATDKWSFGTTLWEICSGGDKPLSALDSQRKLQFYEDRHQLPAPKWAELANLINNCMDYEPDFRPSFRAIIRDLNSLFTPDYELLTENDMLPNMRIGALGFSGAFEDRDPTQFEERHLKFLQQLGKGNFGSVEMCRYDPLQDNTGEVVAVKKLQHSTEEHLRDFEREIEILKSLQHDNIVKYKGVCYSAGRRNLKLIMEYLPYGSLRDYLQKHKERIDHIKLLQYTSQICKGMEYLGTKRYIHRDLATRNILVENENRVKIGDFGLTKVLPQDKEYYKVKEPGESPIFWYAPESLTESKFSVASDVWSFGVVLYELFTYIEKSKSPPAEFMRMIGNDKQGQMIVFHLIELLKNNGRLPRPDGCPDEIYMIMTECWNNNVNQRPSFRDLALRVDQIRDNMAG
Aurora kinase B, sequence (Q96GD4 whole entry, the tested form may be a part): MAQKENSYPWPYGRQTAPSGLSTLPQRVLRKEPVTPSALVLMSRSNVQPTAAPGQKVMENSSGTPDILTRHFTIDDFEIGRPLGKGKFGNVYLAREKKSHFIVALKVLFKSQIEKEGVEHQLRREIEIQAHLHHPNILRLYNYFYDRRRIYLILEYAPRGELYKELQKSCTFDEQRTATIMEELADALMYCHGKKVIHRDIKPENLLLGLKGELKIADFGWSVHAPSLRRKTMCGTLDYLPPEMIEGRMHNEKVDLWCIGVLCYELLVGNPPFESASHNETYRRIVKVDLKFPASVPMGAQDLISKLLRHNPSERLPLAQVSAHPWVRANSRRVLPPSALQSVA
Non-receptor tyrosine-protein kinase TYK2, sequence (P29597 whole entry): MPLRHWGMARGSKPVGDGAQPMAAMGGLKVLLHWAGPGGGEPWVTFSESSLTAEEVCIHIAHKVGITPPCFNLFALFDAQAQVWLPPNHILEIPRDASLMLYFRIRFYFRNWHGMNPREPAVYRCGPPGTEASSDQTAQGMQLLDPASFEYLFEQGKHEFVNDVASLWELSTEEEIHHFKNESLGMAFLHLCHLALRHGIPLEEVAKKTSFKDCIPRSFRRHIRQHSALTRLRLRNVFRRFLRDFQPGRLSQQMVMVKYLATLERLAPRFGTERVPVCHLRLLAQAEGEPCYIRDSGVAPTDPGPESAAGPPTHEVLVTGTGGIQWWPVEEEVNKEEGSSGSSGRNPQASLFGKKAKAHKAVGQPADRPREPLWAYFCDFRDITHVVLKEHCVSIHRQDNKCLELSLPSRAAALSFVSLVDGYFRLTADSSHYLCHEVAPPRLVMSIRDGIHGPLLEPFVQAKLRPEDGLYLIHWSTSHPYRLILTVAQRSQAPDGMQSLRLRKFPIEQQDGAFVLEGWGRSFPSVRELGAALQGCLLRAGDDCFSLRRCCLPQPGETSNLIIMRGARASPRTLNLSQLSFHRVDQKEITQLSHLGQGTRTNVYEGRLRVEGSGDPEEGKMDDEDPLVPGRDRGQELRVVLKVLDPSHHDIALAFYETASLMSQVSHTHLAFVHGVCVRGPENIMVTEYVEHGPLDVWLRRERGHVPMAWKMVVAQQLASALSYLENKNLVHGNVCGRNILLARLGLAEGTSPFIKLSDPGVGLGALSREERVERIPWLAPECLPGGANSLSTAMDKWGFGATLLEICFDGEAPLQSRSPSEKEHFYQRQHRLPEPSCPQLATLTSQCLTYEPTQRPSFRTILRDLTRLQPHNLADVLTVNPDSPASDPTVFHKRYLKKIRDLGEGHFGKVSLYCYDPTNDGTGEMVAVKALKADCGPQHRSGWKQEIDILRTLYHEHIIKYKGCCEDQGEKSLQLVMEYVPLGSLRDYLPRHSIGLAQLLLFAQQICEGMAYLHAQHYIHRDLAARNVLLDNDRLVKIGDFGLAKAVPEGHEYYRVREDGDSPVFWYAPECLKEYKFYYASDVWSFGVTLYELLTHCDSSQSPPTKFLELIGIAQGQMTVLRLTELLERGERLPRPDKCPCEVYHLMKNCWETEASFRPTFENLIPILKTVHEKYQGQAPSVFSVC

As for `Cc1cc(Nc2cc(N3CCN(C)CC3)nc(Sc3ccc(NC(=O)C4CC4)cc3)n2)n[nH]1`, the Activity is 18.2% in assay [1]; 4.5% in assay [2]; 1.6% in assay [3]; 60.3% in [4]; 15.5% in assay [5]; 12.5% in assay [6]. Besides, the Activity in assay [7] was found to be 2.6%; in assay [8], 0.9%; in [9], 57.3%; in assay [10], 26.6%.

On to `COc1cc(F)c(-c2nc3c(NCC4CCNCC4)c(Cl)cnc3[nH]2)cc1OC`, for which the IC50 in [11] is over 22000 nM; in assay [12], 22 nM; in assay [13], 8300 nM; in assay [14] it was 39 nM; in assay [15], 132 nM; in assay [16] it was 114 nM. Also, the IC50 in [21] came out at 28000 nM. Further, the Activity in [1] was determined as 10.8%; in [2], 30.3%; in assay [3] it was 7%; in [4], 38.9%; in assay [5], 13.1%; in assay [6] it was 2.5%. In addition, the Activity in assay [7] turned out to be 56.1%; in assay [8], 6.5%; in assay [9] it was 27%; in assay [10], 7.9%. Moreover, the inhibition entry in assay [17] is “Active”. Further, the inhibition result in assay [18] and in assay [20] was “inactive” each time. Moreover, in assay [19], 200 mg/kg produced 80% inhibition in vivo.
